Laboratory results as given in US11395857B2, “Radiolabeled melanocortin 1 receptor-specific alpha-melanocyte-stimulating hormone analogues for imaging or therapy” (PROVINCIAL HEALTH SERVICES AUTHORITY, priority 2018, dated 2022).

Columns and labels:
[1] = tested on: SK-MEL-1 human melanoma; assay: Radioligand therapy of SK-MEL-1 human melanoma-bearing mice; type: in vivo, NRG mice; details: radiotherapy group, 26.7±3.6 MBq/mouse
Description: For radioligand therapy, SK-MEL-1 human melanoma-bearing mice were injected with saline (control group, n=5), non-radioactive lutetium coupled CCZ01158 (cold std, n=4), and [^177Lu]Lu-CCZ01158 (26.7±3.6 MBq/mouse, n=4). Tumour size and body weight were measured every 2-4 days from the date of injection. Endpoint was defined as >15% weight loss, ulceration of tumours, or tumour volume >1000 mm^3 (Volume=width×width×length/2, measured with calliper). […] This confirms the effectiveness of the ^177Lu radiotherapy with CCZ01158 as the melanoma targeting molecule. […] All mice were euthanized when the tumours reached over 1000 mm^3, except for one mouse due to weight loss in the saline group, and one mouse due to tumour ulceration in the cold std group.

[2] = tested on: SK-MEL-1 human melanoma; assay: Biodistribution of 177Lu-labeled αMSH analogues in mice bearing SK-MEL-1 human melanoma; details: compared to the other two analogues
Description: (§1) The SK-MEL-1 human melanoma cell line (HTB-67) was obtained commercially from ATCC. SK-MEL-1 cells were cultured in Eagle's Minimum Essential Medium (StemCell Technologies) under the same conditions as described in Example 1. Immunodeficient NOD.Cg-Rag1tm1Mom I12rgtm1Wjl/SzJ (NRG) male mice were obtained from an in-house breeding colony at the BC Cancer Research Centre. For tumor implantation, male NRG mice were anesthetized by inhalation with 2% isoflurane, and 5 million SK-MEL-1 cells were inoculated subcutaneously on the right dorsal flank. Mice were used for imaging or biodistribution studies when the tumors reached 6-8 mm in diameter in 16-20 days.
(§2) Biodistribution studies were performed as described in Example 3.

[3] = as above; details: male, mouse, total radioactivity
Description: as §1, §2

[4] = in vivo; details: male, NRG (NOD.Cg-Rag1tm1Mom Il2rgtm1Wjl/SzJ), mouse, total radioactivity
Description: as §1, §2

[5] = NRG (NOD.Cg-Rag1tm1Mom I12rgtm1Wjl/SzJ), fat, iv
[6] = NRG (NOD.Cg-Rag1tm1Mom I12rgtm1Wjl/SzJ), seminal glands, iv
[7] = NRG (NOD.Cg-Rag1tm1Mom Il2rgtm1Wjl/SzJ), SK-MEL-1 tumour
[8] = NRG (NOD.Cg-Rag1tm1Mom Il2rgtm1Wjl/SzJ), adrenal glands
[9] = NRG (NOD.Cg-Rag1tm1Mom Il2rgtm1Wjl/SzJ), blood
[10] = NRG (NOD.Cg-Rag1tm1Mom Il2rgtm1Wjl/SzJ), bone
[11] = NRG (NOD.Cg-Rag1tm1Mom Il2rgtm1Wjl/SzJ), brain
[12] = NRG (NOD.Cg-Rag1tm1Mom Il2rgtm1Wjl/SzJ), heart
[13] = NRG (NOD.Cg-Rag1tm1Mom Il2rgtm1Wjl/SzJ), intestine
[14] = NRG (NOD.Cg-Rag1tm1Mom Il2rgtm1Wjl/SzJ), kidneys
[15] = NRG (NOD.Cg-Rag1tm1Mom Il2rgtm1Wjl/SzJ), liver
[16] = NRG (NOD.Cg-Rag1tm1Mom Il2rgtm1Wjl/SzJ), lungs
[17] = NRG (NOD.Cg-Rag1tm1Mom Il2rgtm1Wjl/SzJ), muscle
[18] = NRG (NOD.Cg-Rag1tm1Mom Il2rgtm1Wjl/SzJ), pancreas
[19] = NRG (NOD.Cg-Rag1tm1Mom Il2rgtm1Wjl/SzJ), spleen
[20] = NRG (NOD.Cg-Rag1tm1Mom Il2rgtm1Wjl/SzJ), stomach
[21] = NRG (NOD.Cg-Rag1tm1Mom Il2rgtm1Wjl/SzJ), testes
[22] = NRG (NOD.Cg-Rag1tm1Mom Il2rgtm1Wjl/SzJ), thyroid
[23] = NRG (NOD.Cg-Rag1tm1Mom Il2rgtm1Wjl/SzJ), urine

## CCCC[C@H](NC(=O)CN1CCC(NC(=O)[C@H](CCCCNC(=O)CN2CCN(CC(=O)O)CCN(CC(=O)O)CCN(CC(=O)O)CC2)NC(=O)CNC(=O)CCCc2ccc(-c3ccc(C)cc3)cc2)CC1)C(=O)N[C@H]1CC(=O)NCCCC[C@@H](C(N)=O)N(C)C(=O)[C@H](Cc2c[nH]c3ccccc23)NC(=O)[C@H](CCCNC(=N)N)N(C)C(=O)[C@@H](Cc2ccccc2)NC(=O)[C@H](Cc2c[nH]cn2)NC1=O [^177Lu-labeled CCZ01158, metal not drawn]
[1]
  Adverse effects: No obvious adverse effects were observed
[2]
  Overall comparison of tumour uptake and tumour to background contrast: superior due to high and sustained tumour uptake, as well as superior tumour to background contrast
[3]; [5]
  tissue uptake at 1 h: 2.24 ± 0.49 %ID/g
  tissue uptake at 4 h: 1.85 ± 0.53 %ID/g
  tissue uptake at 24 h: 0.3 ± 0.07 %ID/g
  tissue uptake at 120 h: 0.2 ± 0.08 %ID/g
[3]; [6]
  tissue uptake at 1 h: 1.8 ± 0.79 %ID/g
  tissue uptake at 4 h: 0.79 ± 0.13 %ID/g
  tissue uptake at 24 h: 0.15 ± 0.07 %ID/g
  tissue uptake at 120 h: 0.11 ± 0.06 %ID/g
[3]; [7]
  tissue uptake at 1 h: 13.3 ± 2.94 %ID/g
  tissue uptake at 4 h: 24.3 ± 5.04 %ID/g
  tissue uptake at 24 h: 29.7 ± 4.29 %ID/g
  tissue uptake at 120 h: 19.3 ± 7.95 %ID/g
[3]; [8]
  tissue uptake at 1 h: 5.1 ± 1.69 %ID/g
  tissue uptake at 4 h: 3.54 ± 1.01 %ID/g
  tissue uptake at 24 h: 1.68 ± 0.93 %ID/g
  tissue uptake at 120 h: 1.36 ± 1.56 %ID/g
[3]; [9]
  tissue uptake at 1 h: 19.1 ± 3.57 %ID/g
  tissue uptake at 4 h: 10.8 ± 0.87 %ID/g
  tissue uptake at 24 h: 0.54 ± 0.24 %ID/g
  tissue uptake at 120 h: 0.04 ± 0.01 %ID/g
[3]; [10]
  tissue uptake at 1 h: 1.36 ± 0.32 %ID/g
  tissue uptake at 4 h: 0.8 ± 0.24 %ID/g
  tissue uptake at 24 h: 0.24 ± 0.15 %ID/g
  tissue uptake at 120 h: 0.23 ± 0.09 %ID/g
[3]; [11]
  tissue uptake at 1 h: 0.33 ± 0.1 %ID/g
  tissue uptake at 4 h: 0.2 ± 0.01 %ID/g
  tissue uptake at 24 h: 0.04 ± 0.02 %ID/g
  tissue uptake at 120 h: 0.03 ± 0.02 %ID/g
[3]; [12]
  tissue uptake at 1 h: 4.7 ± 0.7 %ID/g
  tissue uptake at 4 h: 2.84 ± 0.4 %ID/g
  tissue uptake at 24 h: 0.5 ± 0.2 %ID/g
  tissue uptake at 120 h: 0.3 ± 0.13 %ID/g
[3]; [13]
  tissue uptake at 1 h: 2.07 ± 0.42 %ID/g
  tissue uptake at 4 h: 1.32 ± 0.2 %ID/g
  tissue uptake at 24 h: 0.51 ± 0.52 %ID/g
  tissue uptake at 120 h: 0.28 ± 0.11 %ID/g
[3]; [14]
  tissue uptake at 1 h: 11.3 ± 2.81 %ID/g
  tissue uptake at 4 h: 11.3 ± 1.38 %ID/g
  tissue uptake at 24 h: 8.29 ± 1.94 %ID/g
  tissue uptake at 120 h: 3.26 ± 1.6 %ID/g
[3]; [15]
  tissue uptake at 1 h: 7.24 ± 2.38 %ID/g
  tissue uptake at 4 h: 6.37 ± 1.33 %ID/g
  tissue uptake at 24 h: 4.45 ± 2.6 %ID/g
  tissue uptake at 120 h: 3.85 ± 1.63 %ID/g
[3]; [16]
  tissue uptake at 1 h: 11.2 ± 2.91 %ID/g
  tissue uptake at 4 h: 6.81 ± 1.45 %ID/g
  tissue uptake at 24 h: 1.55 ± 1.22 %ID/g
  tissue uptake at 120 h: 2.15 ± 2.57 %ID/g
[3]; [17]
  tissue uptake at 1 h: 1.67 ± 0.35 %ID/g
  tissue uptake at 4 h: 1.03 ± 0.06 %ID/g
  tissue uptake at 24 h: 0.13 ± 0.04 %ID/g
  tissue uptake at 120 h: 0.05 ± 0.02 %ID/g
[3]; [18]
  tissue uptake at 1 h: 1.87 ± 0.3 %ID/g
  tissue uptake at 4 h: 1.22 ± 0.08 %ID/g
  tissue uptake at 24 h: 0.27 ± 0.13 %ID/g
  tissue uptake at 120 h: 0.16 ± 0.07 %ID/g
[3]; [19]
  tissue uptake at 1 h: 3.9 ± 1.66 %ID/g
  tissue uptake at 4 h: 2.5 ± 0.5 %ID/g
  tissue uptake at 24 h: 1.89 ± 0.85 %ID/g
  tissue uptake at 120 h: 4.6 ± 3.88 %ID/g
[3]; [20]
  tissue uptake at 1 h: 0.85 ± 0.29 %ID/g
  tissue uptake at 4 h: 0.66 ± 0.12 %ID/g
  tissue uptake at 24 h: 1.07 ± 1.42 %ID/g
  tissue uptake at 120 h: 1.24 ± 0.65 %ID/g
[3]; [21]
  tissue uptake at 1 h: 2.99 ± 0.56 %ID/g
  tissue uptake at 4 h: 2.8 ± 0.12 %ID/g
  tissue uptake at 24 h: 0.92 ± 0.26 %ID/g
  tissue uptake at 120 h: 0.56 ± 0.25 %ID/g
[3]; [22]
  tissue uptake at 1 h: 5.57 ± 0.79 %ID/g
  tissue uptake at 4 h: 5.74 ± 0.74 %ID/g
  tissue uptake at 24 h: 5.04 ± 1.22 %ID/g
  tissue uptake at 120 h: 5.4 ± 2.58 %ID/g
[3]; NRG (NOD.Cg-Rag1tm1Mom Il2rgtm1Wjl/SzJ), tumour/kidney, 1 h p.i., NRG mice, SK-MEL-1 melanoma
  tissue to tissue ratio at 1 h: 1.18 ± 0.11
[3]; NRG (NOD.Cg-Rag1tm1Mom Il2rgtm1Wjl/SzJ), tumour/kidney, 4 h p.i., NRG mice, SK-MEL-1 melanoma
  tissue to tissue ratio at 4 h: 2.14 ± 0.26
[3]; NRG (NOD.Cg-Rag1tm1Mom Il2rgtm1Wjl/SzJ), tumour/kidney, 24 h p.i., NRG mice, SK-MEL-1 melanoma
  tissue to tissue ratio at 24 h: 3.68 ± 0.6
[3]; NRG (NOD.Cg-Rag1tm1Mom Il2rgtm1Wjl/SzJ), tumour/kidney, 120 h p.i., NRG mice, SK-MEL-1 melanoma
  tissue to tissue ratio at 120 h: 6.17 ± 1.09
[3]; [23]
  excreta dose per gram or mL at 1 h: 214 ± 57.6 %ID/g
  excreta dose per gram or mL at 4 h: 258 ± 66.2 %ID/g
  excreta dose per gram or mL at 24 h: 21.8 ± 4.6 %ID/g
  excreta dose per gram or mL at 120 h: 3.56 ± 1.16 %ID/g
[4]; Tumour/blood
  tissue to tissue ratio at 1 h: 0.69 ± 0.08
  tissue to tissue ratio at 4 h: 2.24 ± 0.36
  tissue to tissue ratio at 24 h: 62.8 ± 26.4
  tissue to tissue ratio at 120 h: 436 ± 64.7
[4]; Tumour/muscle
  tissue to tissue ratio at 1 h: 7.99 ± 1.03
  tissue to tissue ratio at 4 h: 23.6 ± 4.32
  tissue to tissue ratio at 24 h: 245 ± 48
  tissue to tissue ratio at 120 h: 394 ± 42.9
